Experimental data from the supplement of paper PMC10307832.

Tests used:
Assay in all cases: relative viability (nuclei count vs DMSO), 5 days (fraction); higher = more cells survive
ABC-1 = test system: ABC-1
Method in brief: (§1)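 Lung cancer cell lines were seeded in 1536-well plates and dosed by pin tool the next day, with either a single drug or a fixed anchor-drug dose combined with five library-drug doses (not always all listed) spaced in √10 steps. Five days later, one step fixed the cells and stained their nuclei (final 0.05% Triton X-100, 1% formaldehyde, 1 ug/ml Hoechst), and nuclei were counted on 4× images. Relative viability is the nuclei count in treated wells divided by the count in vehicle wells, and each value is the median of duplicate plates.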

BEN = test system: BEN
Method in brief: as §1

CAL-12T = test system: CAL-12T
Method in brief: as §1

EKVX = test system: EKVX
Method in brief: as §1

EMC-BAC-2 = test system: EMC-BAC-2
Method in brief: as §1

H3255 = test system: H3255
Method in brief: as §1

LC-2-ad = test system: LC-2-ad
Method in brief: as §1

LU99A = test system: LU99A
Method in brief: as §1

NCI-H1355 = test system: NCI-H1355
Method in brief: as §1

NCI-H1650 = test system: NCI-H1650
Method in brief: as §1

NCI-H1734 = test system: NCI-H1734
Method in brief: as §1

NCI-H1792 = test system: NCI-H1792
Method in brief: as §1

NCI-H1993 = test system: NCI-H1993
Method in brief: as §1

NCI-H2009 = test system: NCI-H2009
Method in brief: as §1

NCI-H2085 = test system: NCI-H2085
Method in brief: as §1

NCI-H2087 = test system: NCI-H2087
Method in brief: as §1

NCI-H2342 = test system: NCI-H2342
Method in brief: as §1

NCI-H520 = test system: NCI-H520
Method in brief: as §1

NCI-H522 = test system: NCI-H522
Method in brief: as §1

NCI-H661 = test system: NCI-H661
Method in brief: as §1

NCI-H838 = test system: NCI-H838
Method in brief: as §1

SK-LU-1 = test system: SK-LU-1
Method in brief: as §1

SK-MES-1 = test system: SK-MES-1
Method in brief: as §1

SW 1573 = test system: SW 1573
Method in brief: as §1

UMC-11 = test system: UMC-11
Method in brief: as §1

For Nc1cccc2c1CN(C1CCC(=O)NC1=O)C2=O (stereo unspecified) [Lenalidomide] + COc1cccc2cc(-c3nc([C@H]4CC[C@H](C(=O)O)CC4)n4ncnc(N)c34)[nH]c12 [OSI-027] (partner 0.5 µM), the relative viability (ABC-1; first compound 0.253 µM) was 0.453, the relative viability (ABC-1; first compound 0.8 µM) was 0.489 and the relative viability (ABC-1; first compound 2.53 µM) was 0.533. For the same compound, the relative viability (ABC-1; first compound 8 µM) was 0.481, the relative viability (BEN; first compound 0.253 µM) was 0.331 and the relative viability (BEN; first compound 0.8 µM) was 0.295. It also gave a relative viability (BEN; first compound 2.53 µM) of 0.316, a relative viability (BEN; first compound 8 µM) of 0.3 and a relative viability (CAL-12T; first compound 0.253 µM) of 0.599. It also gave a relative viability (CAL-12T; first compound 0.8 µM) of 0.555, a relative viability (CAL-12T; first compound 2.53 µM) of 1.01 and a relative viability (CAL-12T; first compound 8 µM) of 0.619. It also gave a relative viability (EKVX; first compound 0.253 µM) of 0.724, a relative viability (EKVX; first compound 0.8 µM) of 0.734 and a relative viability (EKVX; first compound 2.53 µM) of 0.696. The relative viability (EKVX; first compound 8 µM) was 0.702, the relative viability (EMC-BAC-2; first compound 0.253 µM) was 0.38 and the relative viability (EMC-BAC-2; first compound 0.8 µM) was 0.349. It also gave a relative viability (EMC-BAC-2; first compound 2.53 µM) of 0.393, a relative viability (EMC-BAC-2; first compound 8 µM) of 0.344 and a relative viability (H3255; first compound 0.253 µM) of 0.633. It also gave a relative viability (H3255; first compound 0.8 µM) of 0.65, a relative viability (H3255; first compound 2.53 µM) of 0.55 and a relative viability (H3255; first compound 8 µM) of 0.516. The relative viability (LC-2-ad; first compound 0.253 µM) was 0.856, the relative viability (LC-2-ad; first compound 2.53 µM) was 0.912 and the relative viability (LC-2-ad; first compound 8 µM) was 0.887. For the same compound, the relative viability (LU99A; first compound 0.253 µM) was 0.31, the relative viability (LU99A; first compound 0.8 µM) was 0.324 and the relative viability (LU99A; first compound 2.53 µM) was 0.292. It also gave a relative viability (LU99A; first compound 8 µM) of 0.285, a relative viability (NCI-H1355; first compound 0.253 µM) of 0.449 and a relative viability (NCI-H1355; first compound 2.53 µM) of 0.436. It also gave a relative viability (NCI-H1355; first compound 8 µM) of 0.362, a relative viability (NCI-H1650; first compound 0.8 µM) of 0.546 and a relative viability (NCI-H1650; first compound 2.53 µM) of 0.722. The relative viability (NCI-H1650; first compound 8 µM) was 0.656, the relative viability (NCI-H1734; first compound 0.253 µM) was 0.63 and the relative viability (NCI-H1734; first compound 0.8 µM) was 0.712. It also gave a relative viability (NCI-H1734; first compound 2.53 µM) of 0.566, a relative viability (NCI-H1734; first compound 8 µM) of 0.608 and a relative viability (NCI-H1792; first compound 0.253 µM) of 0.682. The relative viability (NCI-H1792; first compound 0.8 µM) was 0.709, the relative viability (NCI-H1792; first compound 2.53 µM) was 0.722 and the relative viability (NCI-H1792; first compound 8 µM) was 0.756. It also gave a relative viability (NCI-H1993; first compound 0.253 µM) of 0.401, a relative viability (NCI-H1993; first compound 0.8 µM) of 0.572 and a relative viability (NCI-H1993; first compound 2.53 µM) of 0.593. For the same compound, the relative viability (NCI-H1993; first compound 8 µM) was 0.607, the relative viability (NCI-H2009; first compound 0.253 µM) was 0.627 and the relative viability (NCI-H2009; first compound 0.8 µM) was 0.64. The relative viability (NCI-H2009; first compound 2.53 µM) was 0.779, the relative viability (NCI-H2009; first compound 8 µM) was 0.759 and the relative viability (NCI-H2085; first compound 0.253 µM) was 0.818. It also gave a relative viability (NCI-H2085; first compound 0.8 µM) of 0.518, a relative viability (NCI-H2085; first compound 2.53 µM) of 0.879 and a relative viability (NCI-H2085; first compound 8 µM) of 0.784. The relative viability (NCI-H2087; first compound 0.253 µM) was 0.679, the relative viability (NCI-H2087; first compound 0.8 µM) was 0.501 and the relative viability (NCI-H2087; first compound 2.53 µM) was 0.521. It also gave a relative viability (NCI-H2087; first compound 8 µM) of 0.712, a relative viability (NCI-H2342; first compound 0.253 µM) of 0.67 and a relative viability (NCI-H2342; first compound 0.8 µM) of 0.572. The relative viability (NCI-H2342; first compound 2.53 µM) was 0.57, the relative viability (NCI-H2342; first compound 8 µM) was 0.626 and the relative viability (NCI-H520; first compound 0.253 µM) was 0.284. The relative viability (NCI-H520; first compound 0.8 µM) was 0.25, the relative viability (NCI-H520; first compound 2.53 µM) was 0.311 and the relative viability (NCI-H520; first compound 8 µM) was 0.281. The relative viability (NCI-H522; first compound 0.253 µM) was 0.754, the relative viability (NCI-H522; first compound 2.53 µM) was 0.696 and the relative viability (NCI-H522; first compound 8 µM) was 0.596. The relative viability (NCI-H661; first compound 0.253 µM) was 0.722, the relative viability (NCI-H661; first compound 0.8 µM) was 0.689 and the relative viability (NCI-H661; first compound 2.53 µM) was 0.849. For the same compound, the relative viability (NCI-H661; first compound 8 µM) was 0.729, the relative viability (NCI-H838; first compound 0.253 µM) was 0.399 and the relative viability (NCI-H838; first compound 0.8 µM) was 0.34. For the same compound, the relative viability (NCI-H838; first compound 2.53 µM) was 0.459, the relative viability (NCI-H838; first compound 8 µM) was 0.383 and the relative viability (SK-LU-1; first compound 0.253 µM) was 0.313. The relative viability (SK-LU-1; first compound 0.8 µM) was 0.361, the relative viability (SK-LU-1; first compound 2.53 µM) was 0.36 and the relative viability (SK-LU-1; first compound 8 µM) was 0.421. For the same compound, the relative viability (SK-MES-1; first compound 0.253 µM) was 0.573, the relative viability (SK-MES-1; first compound 0.8 µM) was 0.703 and the relative viability (SK-MES-1; first compound 2.53 µM) was 0.63. It also gave a relative viability (SK-MES-1; first compound 8 µM) of 0.613, a relative viability (SW 1573; first compound 0.253 µM) of 0.573 and a relative viability (SW 1573; first compound 0.8 µM) of 0.712. It also gave a relative viability (SW 1573; first compound 2.53 µM) of 0.792, a relative viability (SW 1573; first compound 8 µM) of 0.565 and a relative viability (UMC-11; first compound 0.253 µM) of 0.456. The relative viability (UMC-11; first compound 0.8 µM) was 0.576, the relative viability (UMC-11; first compound 2.53 µM) was 0.53 and the relative viability (UMC-11; first compound 8 µM) was 0.464.
